# Source: the supplement of paper PMC10307832
# Assays:
# Experiment in all cases: relative viability (nuclei count vs DMSO), 5 days (fraction); higher = more cells survive
# Etoposide + Phenformin = compound: COc1cc([C@@H]2c3cc4c(cc3[C@@H](O[C@@H]3O[C@@H]5CO[C@@H](C)O[C@H]5[C@H](O)[C@H]3O)[C@H]3COC(=O)[C@H]23)OCO4)cc(OC)c1O [Etoposide] + N=C(N)NC(=N)NCCc1ccccc1 [Phenformin] (partner 250 µM)
# How it was run: (§1)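 Medians of duplicate plates are given as relative viability. That measure is the nuclei count in treated wells divided by the count in vehicle wells. Counts were taken on 4× images of lung cancer cell lines in 1536-well plates, 5 days after pin-tool dosing the day after seeding with one drug alone or a fixed anchor-drug dose plus five library-drug doses (not always all listed) in √10 steps.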
# Etoposide + Luminespib = compound: COc1cc([C@@H]2c3cc4c(cc3[C@@H](O[C@@H]3O[C@@H]5CO[C@@H](C)O[C@H]5[C@H](O)[C@H]3O)[C@H]3COC(=O)[C@H]23)OCO4)cc(OC)c1O [Etoposide] + CCNC(=O)c1noc(-c2cc(C(C)C)c(O)cc2O)c1-c1ccc(CN2CCOCC2)cc1 [Luminespib] (partner 0.01 µM)
# How it was run: as §1
# Etoposide + Palbociclib = compound: COc1cc([C@@H]2c3cc4c(cc3[C@@H](O[C@@H]3O[C@@H]5CO[C@@H](C)O[C@H]5[C@H](O)[C@H]3O)[C@H]3COC(=O)[C@H]23)OCO4)cc(OC)c1O [Etoposide] + CC(=O)c1c(C)c2cnc(Nc3ccc(N4CCNCC4)cn3)nc2n(C2CCCC2)c1=O [Palbociclib] (partner 0.5 µM)
# How it was run: as §1
# Bleomycin + Lapatinib = compound: CC1=C(N=C(N=C1N)[C@H](CC(=O)N)NC[C@@H](C(=O)N)N)C(=O)N[C@@H]([C@H](C2=CN=CN2)OC3C(C(C(C(O3)CO)O)O)OC4C(C(C(C(O4)CO)O)OC(=O)N)O)C(=O)N[C@H](C)[C@H]([C@H](C)C(=O)N[C@@H]([C@@H](C)O)C(=O)NCCC5=NC(=CS5)C6=NC(=CS6)C(=O)NCCC[S+](C)C)O [Bleomycin] + CS(=O)(=O)CCNCc1ccc(-c2ccc3ncnc(Nc4ccc(OCc5cccc(F)c5)c(Cl)c4)c3c2)o1 [Lapatinib] (partner 2 µM); details: main component drawn
# How it was run: as §1
Cell Line,relative viability (Etoposide + Phenformin; first compound 0.01 µM),relative viability (Etoposide + Phenformin; first compound 0.03162 µM),relative viability (Etoposide + Phenformin; first compound 0.1 µM),relative viability (Etoposide + Phenformin; first compound 0.3162 µM),relative viability (Etoposide + Phenformin; first compound 1 µM),relative viability (Etoposide + Luminespib; first compound 0.01 µM),relative viability (Etoposide + Luminespib; first compound 0.03162 µM),relative viability (Etoposide + Luminespib; first compound 0.1 µM),relative viability (Etoposide + Luminespib; first compound 0.3162 µM),relative viability (Etoposide + Luminespib; first compound 1 µM),relative viability (Etoposide + Palbociclib; first compound 0.01 µM),relative viability (Etoposide + Palbociclib; first compound 0.03162 µM),relative viability (Etoposide + Palbociclib; first compound 0.1 µM),relative viability (Etoposide + Palbociclib; first compound 0.3162 µM),relative viability (Etoposide + Palbociclib; first compound 1 µM),relative viability (Bleomycin + Lapatinib; first compound 0.01 µM),relative viability (Bleomycin + Lapatinib; first compound 0.03162 µM),relative viability (Bleomycin + Lapatinib; first compound 0.1 µM),relative viability (Bleomycin + Lapatinib; first compound 0.3162 µM),relative viability (Bleomycin + Lapatinib; first compound 1 µM)
NCI-H2342,0.646,0.643,0.425,0.351,0.284,0.622,0.728,0.425,0.352,0.29,0.463,0.542,0.423,0.425,0.331,–,–,–,–,–
SK-MES-1,0.654,0.683,0.582,0.402,0.248,0.695,0.64,0.733,0.357,0.231,0.338,0.31,0.315,0.262,0.239,0.506,0.438,0.407,0.303,0.255
NCI-H2087,0.407,0.508,0.435,0.278,0.143,0.153,0.162,0.165,0.164,0.155,0.211,0.19,0.214,0.215,0.193,0.642,0.97,0.798,0.301,0.235
HCC-366,0.647,0.625,0.327,0.333,0.0669,–,–,–,–,–,0.341,0.375,0.257,0.071,0.0568,0.52,0.337,0.212,0.0246,0.0258
201T,0.45,0.51,0.381,0.368,0.322,0.839,1.11,0.952,0.754,0.539,0.366,0.35,0.325,0.349,0.385,1,0.958,0.961,0.916,0.78
HCC-827,0.413,0.412,0.338,0.315,0.156,0.283,0.795,0.204,0.315,0.175,0.418,0.475,0.341,0.161,0.156,0.197,0.204,0.187,0.173,0.15
NCI-H596,0.774,0.875,0.584,0.788,0.522,1.01,0.883,0.986,0.771,0.681,–,–,–,–,–,0.852,0.742,0.547,0.416,0.452
NCI-H1703,–,–,–,–,–,–,–,–,–,–,–,–,–,–,–,1.01,1,0.807,0.287,0.281
Calu-6,–,–,–,–,–,–,–,–,–,–,–,–,–,–,–,0.729,0.614,0.456,0.168,0.174
HCC-78,0.708,0.824,0.582,0.499,0.226,–,–,–,–,–,0.403,0.522,0.534,0.402,0.378,0.64,0.918,0.549,0.429,0.215
NCI-H1299,–,–,–,–,–,–,–,–,–,–,–,–,–,–,–,0.926,0.985,0.772,0.431,0.382
LCLC-103H,0.316,0.348,0.329,0.346,0.305,0.924,1.17,0.954,0.832,0.541,0.526,0.553,0.509,0.457,0.407,–,–,–,–,–
ChaGo-K-1,0.423,0.546,0.471,0.282,0.169,0.467,0.473,0.38,0.211,0.229,0.929,0.952,0.682,0.289,0.222,–,–,–,–,–
NCI-H1648,–,–,–,–,–,–,–,–,–,–,–,0.289,0.211,0.297,0.265,–,–,–,–,–
NCI-H1563,0.628,0.7,0.609,0.55,0.476,0.502,0.463,0.479,0.408,0.396,–,–,–,–,–,0.698,0.76,0.705,0.611,0.52
A549,0.2,0.121,0.116,0.0719,0.0368,–,–,–,–,–,–,–,–,–,–,0.695,0.634,0.38,0.0818,0.0645
NCI-H522,0.665,0.623,0.535,0.595,0.614,1.03,0.988,0.866,0.907,0.601,0.926,0.988,0.849,1.16,0.797,–,–,–,–,–
NCI-H441,0.835,0.976,0.587,0.275,0.198,0.307,0.28,0.331,0.259,0.256,0.194,0.251,0.177,0.191,0.128,–,–,–,–,–
NCI-H1623,0.624,0.615,0.388,0.485,0.281,0.541,0.537,0.347,0.405,0.28,–,–,–,–,–,–,–,–,–,–
SW 900,0.359,0.618,0.459,0.322,0.16,0.185,0.21,0.168,0.175,0.153,0.585,0.503,0.593,0.492,0.263,–,–,–,–,–
IA-LM,–,–,–,–,–,–,–,–,–,–,–,–,–,–,–,0.476,0.7,0.623,0.274,0.336
EBC-1,–,–,–,–,–,–,–,–,–,–,–,–,–,–,–,0.217,0.215,0.199,0.206,0.196
